Assay results as given in ChEMBL document CHEMBL1201862, “PubChem BioAssay data set” (2004).
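The compound was tested at five concentrations on cells cultured in 96-well plates, with a 48-hour exposure period. Here, GI50 denotes the concentration required for 50% inhibition of growth.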 Activity calls are given as the source filed them. No stated cut-off is given here; in the data, active = GI50 up to about 1.1 µM and inactive = higher. Where a SMILES comes first, the peptide text is derived from it. The star is where a group is joined. Cbz = O=C(OCc1ccccc1)*

Assays:
Experiment in all cases: inhibition of tumour cell growth, NCI panel, 48 h
NCI-H460 = tested on: NCI-H460
NCI/ADR-RES = tested on: NCI/ADR-RES
UACC-257 = tested on: UACC-257
CAKI-1 = tested on: CAKI-1
SK-MEL-28 = tested on: SK-MEL-28
A549 = tested on: A549
HCT-15 = tested on: HCT-15
NCI-H522 = tested on: NCI-H522
SN12C = tested on: SN12C
HCT-116 = tested on: HCT-116
SW-620 = tested on: SW-620
HOP-92 = tested on: HOP-92
MCF7 = tested on: MCF7
SNB-75 = tested on: SNB-75
UO-31 = tested on: UO-31
RXF 393 = tested on: RXF 393
OVCAR-3 = tested on: OVCAR-3
OVCAR-4 = tested on: OVCAR-4
A498 = tested on: A498

Row | SMILES | GI50 (NCI-H460) | GI50 (NCI/ADR-RES) | GI50 (UACC-257) | GI50 (CAKI-1) | GI50 (SK-MEL-28) | GI50 (A549) | GI50 (HCT-15) [µM] | GI50 (NCI-H522) | GI50 (SN12C) | GI50 (HCT-116) | GI50 (SW-620) | GI50 (HOP-92) | GI50 (MCF7) | GI50 (SNB-75) | GI50 (UO-31) | GI50 (RXF 393) | GI50 (OVCAR-3) | GI50 (OVCAR-4) | GI50 (A498)
1 | CCOC(=O)CNC(=O)C(C)NC(=O)C(NC(=O)OCc1ccccc1)C(C)C (stereo not drawn) (Cbz-Val-Ala-Gly-OEt; configuration not given here) | > 100 µM (inactive) | > 100 µM (inactive) | > 100 µM (inactive) | > 100 µM (inactive) | > 100 µM (inactive) | > 100 µM (inactive) | > 100 | 97.5 µM (inactive) | > 100 µM (inactive) | > 100 µM (inactive) | > 100 µM (inactive) | > 100 µM (inactive) | > 100 µM (inactive) | > 100 µM (inactive) | 98.9 µM (inactive) | > 100 µM (inactive) | > 100 µM (inactive) |  | 
2 | S=C1CC(c2ccccc2)Sc2ccc(Cl)cc2N1 (stereo not drawn) | 21.2 µM (inactive) | 86.3 µM (inactive) | 18.1 µM (inactive) | 63.7 µM (inactive) | 41.1 µM (inactive) | 34.8 µM (inactive) | 32.7 | 25.8 µM (inactive) | 94 µM (inactive) | 21.2 µM (inactive) |  |  | 36.2 µM (inactive) | 30 µM (inactive) | 71.3 µM (inactive) | 2.99 µM (inactive) | 46.5 µM (inactive) | 54.5 µM (inactive) | 
3 | c1ccc2[nH]c(C3CCCCO3)nc2c1 (stereo not drawn) |  | > 100 µM (inactive) | > 100 µM (inactive) | > 100 µM (inactive) | > 100 µM (inactive) | > 100 µM (inactive) | > 100 | > 100 µM (inactive) | > 100 µM (inactive) | > 100 µM (inactive) | > 100 µM (inactive) | > 100 µM (inactive) | > 100 µM (inactive) | > 100 µM (inactive) | > 100 µM (inactive) | > 100 µM (inactive) | > 100 µM (inactive) | > 100 µM (inactive) | 
4 | O=S(=O)(/N=C(\NO)Nc1ccc(Cl)cc1)c1cccc2nsnc12 | 38.7 µM (inactive) | 46 µM (inactive) | 31 µM (inactive) | 12.9 µM (inactive) | 18.7 µM (inactive) | 45.5 µM (inactive) | 18.3 | 11 µM (inactive) | 21.9 µM (inactive) | 32 µM (inactive) | 31.8 µM (inactive) | 22.1 µM (inactive) |  | 31.8 µM (inactive) | 65.2 µM (inactive) | 19.6 µM (inactive) | 18.7 µM (inactive) | 13.7 µM (inactive) | 
5 | Nc1ncnc2c1nnn2C1CCC(CP(=O)(O)O)C1 (stereo not drawn) | > 100 µM (inactive) | > 100 µM (inactive) | > 100 µM (inactive) | > 100 µM (inactive) | > 100 µM (inactive) | > 100 µM (inactive) | > 100 |  | > 100 µM (inactive) | > 100 µM (inactive) | > 100 µM (inactive) | > 100 µM (inactive) | > 100 µM (inactive) | > 100 µM (inactive) | > 100 µM (inactive) | > 100 µM (inactive) | > 100 µM (inactive) | > 100 µM (inactive) | 
6 | CCOC(=O)C(=O)CC(=O)C1=C(c2ccccc2OC)CC(c2cccs2)=CC1=O | 48.5 µM (inactive) | 46 µM (inactive) | > 100 µM (inactive) | 57.1 µM (inactive) | > 100 µM (inactive) | 43.5 µM (inactive) | 82.4 | 20.9 µM (inactive) | > 100 µM (inactive) | 31.7 µM (inactive) | 72.3 µM (inactive) | 71.1 µM (inactive) |  | 0.418 µM (active) | > 100 µM (inactive) | 86.9 µM (inactive) | 41.9 µM (inactive) |  | > 100 µM (inactive)
7 | Cc1cccc2c1Oc1cc(Cl)ccc1C2NC(=O)CCN1CCCCC1 (stereo not drawn) | 16.5 µM (inactive) | 15.5 µM (inactive) | 16 µM (inactive) |  | 15.6 µM (inactive) | 18.7 µM (inactive) | 17.7 | 16.9 µM (inactive) | 17.3 µM (inactive) | 15.9 µM (inactive) | 17.8 µM (inactive) | 2.02 µM (inactive) | 17.5 µM (inactive) | 14.5 µM (inactive) | 15.4 µM (inactive) |  | > 10 µM (inactive) | 15.3 µM (inactive) | 
8 | CCOC(=O)N/N=C(\CC)OCC | > 100 µM (inactive) | > 100 µM (inactive) | > 100 µM (inactive) | > 100 µM (inactive) |  | > 100 µM (inactive) | > 100 | > 100 µM (inactive) | > 100 µM (inactive) | > 100 µM (inactive) |  |  | > 100 µM (inactive) | > 100 µM (inactive) | > 100 µM (inactive) | > 100 µM (inactive) | > 100 µM (inactive) |  | 
9 | Clc1ccc(Cc2nc3cc(Cl)ccc3o2)cc1 | 42.1 µM (inactive) | 31.9 µM (inactive) | 33 µM (inactive) | 30.6 µM (inactive) | 41.4 µM (inactive) | 41.5 µM (inactive) | 29.5 | 21.7 µM (inactive) | 40.1 µM (inactive) | 35.1 µM (inactive) | 56.4 µM (inactive) | 31.6 µM (inactive) | 38.5 µM (inactive) |  | 32 µM (inactive) |  | 22.4 µM (inactive) | 24.4 µM (inactive) | 
10 | CN1CCC2(CC1)C(=O)N(NC(N)=O)C(=O)C2c1ccccc1 (stereo not drawn) | > 100 µM (inactive) | > 100 µM (inactive) | > 100 µM (inactive) | > 100 µM (inactive) | > 100 µM (inactive) | > 100 µM (inactive) | > 100 |  | > 100 µM (inactive) | > 100 µM (inactive) | > 100 µM (inactive) |  | > 10 µM (inactive) | > 100 µM (inactive) | > 100 µM (inactive) | > 100 µM (inactive) | > 100 µM (inactive) | > 100 µM (inactive) | 
11 | O=C1c2cc([N+](=O)[O-])cnc2S(=O)(=O)N1c1ccc(Br)cc1 | > 100 µM (inactive) | > 100 µM (inactive) | > 100 µM (inactive) | > 100 µM (inactive) | > 100 µM (inactive) | > 100 µM (inactive) | > 100 | > 100 µM (inactive) | > 100 µM (inactive) | > 100 µM (inactive) | > 100 µM (inactive) | > 100 µM (inactive) | > 100 µM (inactive) | > 100 µM (inactive) | > 100 µM (inactive) |  | > 100 µM (inactive) | > 100 µM (inactive) | 
12 | N/N=C(/C(=O)Nc1cccc(Cl)c1)C(C(=O)c1ccc(O)cc1O)C1OC(=O)c2ccccc21 (stereo not drawn) | 52.2 µM (inactive) |  | > 100 µM (inactive) |  | > 100 µM (inactive) | > 100 µM (inactive) | > 100 | 71 µM (inactive) | > 100 µM (inactive) | > 100 µM (inactive) | > 100 µM (inactive) |  |  |  | > 100 µM (inactive) |  | > 100 µM (inactive) | > 100 µM (inactive) | 25.5 µM (inactive)
13 | CSc1nncc(-c2cc3c(c(SC)n2)CCC3)n1 |  | 69.5 µM (inactive) | > 100 µM (inactive) | 40.7 µM (inactive) | > 100 µM (inactive) | > 100 µM (inactive) | > 100 | 28.8 µM (inactive) | > 100 µM (inactive) | 96.2 µM (inactive) | 82.4 µM (inactive) |  |  | 22.1 µM (inactive) | > 100 µM (inactive) | > 100 µM (inactive) | > 100 µM (inactive) | 48.1 µM (inactive) | 
